{"source": "paper PMC6114082", "about": "“Synthesis of aminophenylhydroxamate and aminobenzylhydroxamate derivatives and in vitro screening for antiparasitic and histone deacetylase inhibitory activity” (International Journal for Parasitology: Drugs and Drug …, 2018)", "key": {"[1]": {"system": "L. braziliensis MHOM/BR/75/M209", "test": "Antileishmanial activity, L. braziliensis promastigotes (luciferase expressing strain)", "format": "cell-based, Leishmania braziliensis", "conditions": "Leishmania braziliensis", "method": "The antitrypanosomatid activity of the compounds was ascertained as follows. Leishmania parasites were cultured at 26 °C in SDM-79 medium supplemented with 10% fetal calf serum (FCS), and the antileishmanial activity was determined according to a previously published protocol for LUC-expressing and wild-type Leishmania ([Sereno et al., 2001], [Abbassi et al., 2008]). Trypanosoma brucei gambiense were grown at 26 °C in Cunningham's medium supplemented with 10% FCS, 2 mM GlutaMAX-1 (Gibco, USA), 100 U/ml penicillin, 100 μg/ml streptomycin and […] bovine hemin. The epimastigote form of Trypanosoma cruzi (strain Y cl7 scl2, lineage Tc2) (kindly provided by Philippe Truc and Christian Barnabé, UMR 177 IRD-CIRAD InterTryp, Montpellier, France) were grown at 26 °C in liver infusion tryptose (LIT) medium, supplemented with 10% FCS, 2 mM GlutaMAX™-I, 100 U/ml penicillin, 100 μg/ml streptomycin and bovine hemin (20 mg/l) (Gibco). The antitrypanosomatids activity was determined using a protocol that was initialy set up for wild-type Leishmania ([Abbassi et al., 2008]). To assess the drug activity on Toxoplasma gondii, confluent human foreskin fibroblast (HFF) monolayers were infected with YFP-type I Rh kindly provided by B. Striepen, see ([Striepen et al., 1998]) or Tomato-type II Pru kindly provided by N. Blanchard (Toulouse), expressing parasites at 5 × 10^4 per well, which were then centrifuged for 30 s at 1300 rpm and incubated for 30 min in a water bath at 37 °C to allow invasion. The wells were then washed three times with PBS to eliminate extracellular parasites, and the drugs were added at various concentrations ranging from 1 to 50 μM. After incubation for 24 h at 37 °C in a humidified atmosphere containing 5% CO2, the cells were fixed in 2.5% methanol-free formaldehyde (Tebu-bio)/PBS for 30 min at room temperature. Nuclei were stained with Hoechst 33258 (2 μg/ml, Molecular Probes) for 20 min and then washed three times with water for 10 min each time. The number of infected cells, i.e., cells harboring a parasitophorous vacuole, and the number of parasites per vacuole were determined using an Olympus ScanR microscope ( × 20 objective) and ScanR software. The parasitic index in % compared to the control was calculated as follows: (PI=((number of parasite/100 cells in treated wells) x (% of infected macrophage in treated well)/(number of parasite/100 cells in untreated wells) x (% of infected macrophage in untreated wells))*100)."}, "[2]": {"system": "T. gondii deacetylase activity (total protein extract)", "test": "Deacetylase activity of total protein extract of T. gondii tachyzoites", "format": "biochemical, Toxoplasma gondii", "conditions": "0.125 μM", "method": "(§1) The HDACi effect against HeLa nuclear extracts and recombinant proteins were measured using a fluorometric HDAC assay kit (Active Motif, Belgium) according to the manufacturer's instructions. […] A negative control containing trichostatin A at a final concentration of 2 μM was analyzed for each independent experiment.\nHDAC activity was determined from total protein extracted from T. gondii."}, "T. gondi RH-YFP": {"system": "T. gondi RH-YFP", "test": "Anti-Toxoplasma activity in infected HFF monolayers, type I RH-YFP (parasitic index)", "format": "cell-based, Toxoplasma gondii"}, "[3]": {"system": "HeLa nuclear extract (HDAC 1, 2, 6, and 8 predominant)", "test": "Fluorometric HDAC assay, HeLa nuclear extract", "format": "biochemical", "method": "as §1"}, "HDAC 6": {"molecular_target": "T1, HDAC 6 (Homo sapiens, UniProt Q9UBN7)", "T1 construct": "purchased Active Motif, Belgium", "T1 sequence (Q9UBN7 1-1215)": "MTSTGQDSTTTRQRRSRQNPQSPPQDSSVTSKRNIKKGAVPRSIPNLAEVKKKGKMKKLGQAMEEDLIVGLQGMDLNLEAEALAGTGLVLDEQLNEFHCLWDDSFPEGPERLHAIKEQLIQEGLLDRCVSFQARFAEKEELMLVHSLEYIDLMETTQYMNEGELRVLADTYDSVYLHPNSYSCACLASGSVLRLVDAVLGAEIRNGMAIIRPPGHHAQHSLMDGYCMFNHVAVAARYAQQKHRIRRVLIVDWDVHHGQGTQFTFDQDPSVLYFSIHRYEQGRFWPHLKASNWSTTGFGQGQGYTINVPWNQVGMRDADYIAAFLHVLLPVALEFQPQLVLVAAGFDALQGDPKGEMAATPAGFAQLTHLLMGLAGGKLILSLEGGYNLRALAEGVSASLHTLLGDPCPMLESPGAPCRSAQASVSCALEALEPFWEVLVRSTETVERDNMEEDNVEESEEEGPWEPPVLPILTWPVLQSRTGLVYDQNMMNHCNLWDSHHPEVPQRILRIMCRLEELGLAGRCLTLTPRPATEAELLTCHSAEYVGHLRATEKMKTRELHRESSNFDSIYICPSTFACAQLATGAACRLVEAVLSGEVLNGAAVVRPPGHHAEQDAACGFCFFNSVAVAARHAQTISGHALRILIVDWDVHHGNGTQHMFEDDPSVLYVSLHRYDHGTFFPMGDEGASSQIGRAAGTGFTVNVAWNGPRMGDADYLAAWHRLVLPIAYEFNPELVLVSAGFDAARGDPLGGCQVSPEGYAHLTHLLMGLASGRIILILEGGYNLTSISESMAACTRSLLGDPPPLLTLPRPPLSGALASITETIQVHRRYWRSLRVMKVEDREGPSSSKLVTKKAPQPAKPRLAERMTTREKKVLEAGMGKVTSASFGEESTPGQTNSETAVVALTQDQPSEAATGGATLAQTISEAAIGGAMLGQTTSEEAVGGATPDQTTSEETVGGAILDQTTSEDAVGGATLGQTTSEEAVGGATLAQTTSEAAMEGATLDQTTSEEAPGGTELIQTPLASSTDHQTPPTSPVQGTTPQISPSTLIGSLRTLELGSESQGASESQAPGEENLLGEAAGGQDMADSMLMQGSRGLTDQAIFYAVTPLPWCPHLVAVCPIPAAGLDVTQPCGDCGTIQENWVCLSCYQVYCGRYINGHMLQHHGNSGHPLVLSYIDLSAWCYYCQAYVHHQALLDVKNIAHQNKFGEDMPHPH", "test": "Fluorometric HDAC assay, recombinant HDAC6", "format": "biochemical", "method": "as §1"}}}
{"smiles": "COc1cccc(CC(=O)Nc2ccc(C(=O)NO)cc2)c1", "note": "[Compound 363, N-hydroxy-4-[2-(3-methoxyphenyl)acetamido]benzamide]", "values": [{"measurement": "IC50", "setting": "[1]", "result": "> 60", "unit": "µM"}, {"measurement": "inhibition of T. gondii deacetylase activity", "setting": "[2]", "result": 44, "unit": "%"}, {"measurement": "IS^a selectivity index for T. gondi", "setting": "T. gondi RH-YFP; IC50 HFF / IC50 T. gondi RH-YFP", "result": 300}, {"measurement": "IC50", "setting": "T. gondi RH-YFP; Toxoplasma gondii, read-out: anti-Toxoplasma activity IC50, range over strains, type I and type II strains together (abstract)", "result": "350 to 2250", "unit": "nM"}, {"measurement": "selectivity index, range over human cell lines", "setting": "T. gondi RH-YFP; using different human cell lines", "result": "10–300"}, {"measurement": "HDACi effect, inhibition at single concentration", "setting": "[3]; 1.0 μM, screen on HeLa nuclear extract and recombinant HDAC1, 3, 6, 8 (Fig. 2A)", "result": 90, "unit": "%"}, {"measurement": "IC50", "setting": "[3]; HeLa nuclear extract, read-out: HDACi HeLa IC50", "result": "85 ± 35", "unit": "nM"}, {"measurement": "Fold, HDAC 6", "setting": "HDAC 6; 363 as compared to SAHA", "result": 34.9}, {"measurement": "IC50", "setting": "HDAC 6; recombinant protein, read-out: rHDAC 6 IC50", "result": "45 ± 15", "unit": "nM"}]}
